From paper PMC8648123, “An atypical EhGEF regulates phagocytosis in Entamoeba histolytica through EhRho1” (PLoS Pathogens, 2021)

How the values were obtained:
EhGEF = target: T1, EhGEF (Entamoeba histolytica, UniProt C4LYE4); assay: tryptophan fluorescence quenching titration; format: binding
T1 construct: gene EHI_008090; recombinant protein lacking PH domain (EhGEFΔPH), putative GEF domain

[1] = target: GST-tagged EhRho1 (wild type) (Entamoeba histolytica)

Molecule	Kd (EhGEF) [µM]	MANT-GDP dissociation from recombinant EhRho1 in presence of HA-EhGEF, compared with HsRhoA and EhRab1a [1] [fold]
Nc1nc2c(ncn2[C@@H]2O[C@H](COP(=O)(O)OP(=O)(O)OP(=O)(O)O)[C@@H](O)[C@H]2O)c(=O)[nH]1 [GTP]	298	
HA-tagged EhGEF (full length wild type) (natural protein) MSEELKISVESLRPALFEGWGKKQGGSVKTWKKRWFVLKDNRLWYFASKTAEEAKGFIELPPGTETKDVSQNKKFMFSINSRNTKGSRVFYIVTENSVDHATFFDAVRKVLNKSSPSSVPAAQSTTPVNVPKAENQFTLQGNNSSTGLSTSTQPVTSTIPPMADAVNIPNSLQPKCDGRKNINKIKAKISWLQVEGENVVEFWKYWMDSTPQSDALEVGQSIQFMLVVSGNTEKLSWRVFGPQGALIQNMVDFFWNVGAPDEEIDHLNNLGCQINPSEIGSWIDMSVMNGMDGGWFFKGDLVCDVIRDTADKCEYAERLITWAKEHGLNYLCQMGRDMGATPPRQSEFRFKLDGVISSRMEKVHSAFTTFGFPPIPVNIVEILTNLPPVYTYFYLCVIVSSEGFVKISILVPAPKQDVVDAFLFAMSDVKDTHIALHKDITNTLGNTPLFVEYCYLNPGYGYEVYKEGADVLVHYNLGSESR		2
